Experimental data from publication PMC6272242, “Topical Anti-inflammatory Activity of New Hybrid Molecules of Terpenes and Synthetic Drugs” (Molecules, 2015).

Tests used:
[1] = tested on: mice ear edema induced by arachidonic acid; assay: Topical anti-inflammatory effect, arachidonic acid (AA) induced ear edema in mice; type: in vivo; settings: 3.2 µmol/mouse; for inhibition in vivo at 3.2 µmol/animal / % TAAA ± SEM (percent reduction of the ear edema, arachidonic acid): 1 h after AA; for inhibition in vivo at 3.2 µmol/animal: n = 8, read-out: % TAAA ± SEM (percent reduction of the ear edema, arachidonic acid); for % TAAA ± SEM (percent reduction of the ear edema, arachidonic acid): n = 8
Method: (§1) The inflammatory agent arachidonic acid (AA) and phorbol 12-myristate 13-acetate (TPA) were used to assess the anti-inflammatory effect/action mechanism of the starting compounds, new synthetic products and reference drugs. […] Adult male CF-1 mice (20–25 g), obtained from a stock maintained at the Chilean Public Health Institute, were used to assess the anti-inflammatory effect. All animals were housed in a climate- and light-controlled room with a 12 h light-dark cycle, fasted overnight before the day of the assays, with free access to water. The anti-inflammatory activity of each compound was evaluated in groups of 8 treated and 16 control mice. Due to ethical considerations, the number of animals was kept to a minimum and single dose experiments were carried out.
(§2) The pro-inflammatory agents TPA and AA, the reference drugs indomethacin and nimesulide were from Sigma. […] After 5 min, inflammation was induced by the application of 20 µL TPA or AA (5 mg/mL) in acetone. […] Control subjects only received TPA or AA. Both, the sample and the TPA or AA, were applied to the inner (10 µL) and outer (10 µL) surfaces of the right ear. The left ear only received acetone. Mice were sacrificed by cervical dislocation (after 6 h of TPA and 1 h AA), and a 6 mm diameter section of the right and left ears were cut and weighed. The weight differences between both ear sections correspond to the edema value. The percent topical anti-inflammatory activity (TA) was evaluated according to the following equation: (1) %TA=[ Wc−Ws/Wc]× 100 where Wc and Ws are the different median values of the weights of the right and the left ear sections of the control and the treated animals, respectively.
(§3) For the animal experiments all values are presented as median ± SEM. Drug-induced changes were statistically estimated using the Kruskall-Wallis test for comparison between groups and testing, and the Mann-Whitney test was used in the independent data for individual comparisons. The effects were considered significant if p ≤ 0.05. For cytotoxicity experiments, each concentration was tested in quadruplicate together with the control and repeated three times in different experiments. Results are expressed as IC50 values (µM) ± S.D.

[2] = tested on: mice ear edema induced by 12-O-tetradecanoylphorbol 13-acetate; assay: Topical anti-inflammatory effect, 12-O-tetradecanoylphorbol 13-acetate (TPA) induced ear edema in mice; type: in vivo; settings: 1.4 µmol/mouse; for inhibition in vivo at 1.4 µmol/animal / % TATPA ± SEM (percent reduction of the ear edema, TPA): 6 h after TPA; for inhibition in vivo at 1.4 µmol/animal: n = 8, read-out: % TATPA ± SEM (percent reduction of the ear edema, TPA); for % TATPA ± SEM (percent reduction of the ear edema, TPA): n = 8
Method: as §1, §2, §3

lung fibroblasts (MRC-5) = assay: Cytotoxicity, MTT reduction assay, MRC-5; type: cell-based; settings: Homo sapiens, MRC5, confluent cultures, 24 h, read-out: IC50 ± SD, MRC-5
Method: (§4) The human cell lines, MRC-5 normal lung fibroblasts (CCL-171), AGS gastric epithelial adenocarcinoma cells (CRL-1739) and HepG2 hepatocellular carcinoma cells (HB-8065) were obtained from the American Type Culture Collection (ATCC, Manasas, VA, USA). The cells were grown as monolayers in the following media: MRC-5 and HepG2 in MEM and AGS in Ham F-12. The MEM medium contained 2 mM L-glutamine, 1 mM sodium pyruvate and 1.5 g/L sodium bicarbonate. Ham F-12 was supplemented with 2 mM L-glutamine and 1.5 g/L sodium bicarbonate. Both media were supplemented with 10% heat inactivated fetal bovine serum, 100 IU/mL penicillin and 100 µg/mL streptomycin in a humidified incubator with 5% CO2 in air at 37 °C. For the experiments, cells were plated at a density of 25,000 cells/mL in 96-well plates. […] Compounds were first dissolved in DMSO and then in medium. The final concentration of DMSO in the test medium and controls was 1%. […] The cell viability for each compound was calculated comparing the cell viability of the untreated controls (100%) with the cell viability of the different concentrations of each compound. Each concentration was tested in quadruplicate together with the control and repeated three times in separate experiments. Cell viability was determined at the end of the incubation by means of the MTT reduction assay. Results were converted to percentage of controls, and the IC50 values were graphically obtained from the dose-response curves. Culture media, antibiotics and fetal bovine serum were obtained from Invitrogen Corp. (Waltham, MA, USA). Other reagents were purchased from Sigma Chemical Co. For the animal experiments all values are presented as median ± SEM. Drug-induced changes were statistically estimated using the Kruskall-Wallis test for comparison between groups and testing, and the Mann-Whitney test was used in the independent data for individual comparisons. The effects were considered significant if p ≤ 0.05. For cytotoxicity experiments, each concentration was tested in quadruplicate together with the control and repeated three times in different experiments. Results are expressed as IC50 values (µM) ± S.D.

[3] = tested on: gastric epithelial cells (AGS); assay: Cytotoxicity, MTT reduction assay, AGS; type: cell-based; settings: Homo sapiens, Epithelial cell, confluent cultures, 24 h, read-out: IC50 ± SD, AGS
Method: as §4

hepatocytes HepG2 = assay: Cytotoxicity, MTT reduction assay, HepG2; type: cell-based; settings: Homo sapiens, confluent cultures, 24 h, read-out: IC50 ± SD, HepG2
Method: as §4, with “Results were converted to percentage of controls, and the IC50 values were graphically obtained from the dose-response curves.” left out

[4] = tested on: human lung fibroblasts (MRC-5), gastric epithelial cells (AGS) and hepatocytes HepG2; assay: Cytotoxicity, MTT reduction assay, summary over the three cell lines; type: cell-based; settings: for IC50: Homo sapiens, MRC-5, AGS and HepG2, 24 h, MTT, read-out: IC50 values, range over the three cell lines; for Cytotoxic effect, in words: MRC-5, AGS and HepG2
Method: as §4

| SMILES | inhibition in vivo at 3.2 µmol/animal [1] [%] | inhibition in vivo at 1.4 µmol/animal [2] [%] | IC50 (lung fibroblasts (MRC-5)) [µM] | IC50 [3] [µM] | IC50 (hepatocytes HepG2) [µM] | IC50 [4] [µM] | Activity in the AA model, in words [1] | % TAAA ± SEM (percent reduction of the ear edema, arachidonic acid) [1] | % TATPA ± SEM (percent reduction of the ear edema, TPA) [2] | Cytotoxic effect, in words [4] | Activity in the TPA assay, in words [2] |
| --- | --- | --- | --- | --- | --- | --- | --- | --- | --- | --- | --- |
| CC(C)Cc1ccc([C@H](C)C(=O)Oc2cc3c(cc2C(C)C)CCC2C(C)(C)CCC[C@]32C)cc1 (mixture of isomers) [Compound 6, Ferruginyl ibuprofenate] | 14.9 ± 7.1 | 47.9 ± 4.6 | > 1000 | > 1000 | 874 ± 34 | ≥ 874 |  |  |  |  |  |
| C=C1CCC2[C@](C)(CCC[C@]2(C)C(=O)O)[C@H]1CC[C@@H](C)CCOC(=O)[C@@H](C)c1ccc(CC(C)C)cc1 (mixture of isomers) [Compound 8, Imbricatol-15-yl ibuprofenate] | 10 ± 6 | 40.3 ± 2.4 | 34 ± 2 | 23 ± 1 | 79 ± 8 | 23 to 79 |  |  |  |  |  |
| C=C1CCC2[C@](C)(CCC[C@]2(C)C(=O)OC)[C@H]1CC[C@@H](C)CCOC(=O)[C@@H](C)c1ccc(CC(C)C)cc1 (mixture of isomers) [Compound 9, Imbricatol-15-yl ibuprofenate methyl ester] | 14.9 ± 7.4 | 41.2 ± 6.2 | 706 ± 35 | 623 ± 39 | 746 ± 38 | ≥ 601 |  |  |  |  |  |
| CC(C)Cc1ccc([C@H](C)C(=O)O[C@H]2CC[C@@]3(C)C(CC[C@]4(C)C3CC=C3C5CC(C)(C)CC[C@]5(C(=O)O)CC[C@]34C)C2(C)C)cc1 (mixture of isomers) [Compound 12, Oleanoyl ibuprofenate] | 56.8 | 79.9 | 616 ± 32 | 526 ± 19 | > 1000 |  | significant effect | 56.8 ± 7.4 % | 79.9 ± 10.6 % |  |  |
| COC(=O)[C@]12CCC(C)(C)CC1C1=CCC3[C@@]4(C)CC[C@H](OC(=O)[C@@H](C)c5ccc(CC(C)C)cc5)C(C)(C)C4CC[C@@]3(C)[C@]1(C)CC2 (mixture of isomers) [Compound 13, Oleanoyl ibuprofenate methyl ester] | 19.5 ± 9.2 | 47.4 ± 2.6 | 402 ± 20 | 454 ± 21 | 742 ± 48 |  |  |  |  |  |  |
| CC(C)c1cc2c(cc1O)[C@@]1(C)CCCC(C)(C)[C@@H]1CC2 [Compound 1, ferruginol, reference compound] | 21 ± 2.1 | 20.4 ± 3.1 | 31 ± 2 | 29 ± 1 | 39 ± 3 | 29 to 39 |  | 21.0 ± 2.1 *^,a % | 20.4 ± 3.1 *^,a % | strong |  |
| C=C1CC[C@@H]2[C@](C)(CCC[C@]2(C)C(=O)O)[C@H]1CC[C@H](C)CCO [Compound 2, imbricatolic acid, reference compound] | 5 ± 3 | 10.1 ± 4 | 134 ± 7 | 148 ± 9 | 111 ± 7 | 111 to 148 |  |  |  | moderate |  |
| CC1(C)CC[C@]2(C(=O)O)CC[C@]3(C)C(=CC[C@@H]4[C@@]5(C)CC[C@H](O)C(C)(C)[C@@H]5CC[C@]43C)[C@@H]2C1 [Compound 3, oleanolic acid, reference compound] | 2.7 ± 7.5 | 70.2 ± 8.3 | 186 ± 9 | 234 ± 16 | 170 ± 5 |  | inactive |  | 70.2 ± 8.3 *^,a % |  | active |
| COc1ccc2cc([C@H](C)C(=O)O)ccc2c1 [Compound 5, naproxen, reference compound] |  | 29.9 ± 6.2 | > 1000 | > 1000 |  |  | inactive |  |  |  |  |
| COc1ccc2cc([C@H](C)C(=O)O[C@H]3CC[C@@]4(C)C(CC[C@]5(C)C4CC=C4C6CC(C)(C)CC[C@]6(C(=O)O)CC[C@]45C)C3(C)C)ccc2c1 (some centres unmarked) [Compound 14, Oleanoyl naproxenate] | 9 ± 11.3 | 55.5 ± 5.1 | 554 ± 22 | 486 ± 26 | > 1000 |  |  |  |  |  |  |
| COC(=O)[C@]12CCC(C)(C)CC1C1=CCC3[C@@]4(C)CC[C@H](OC(=O)[C@@H](C)c5ccc6cc(OC)ccc6c5)C(C)(C)C4CC[C@@]3(C)[C@]1(C)CC2 (some centres unmarked) [Compound 15, Oleanoyl naproxenate methyl ester] | 2.7 ± 8.1 | 80 | 816 ± 42 | 593 ± 31 | > 1000 |  |  |  | 80.0 ± 11.0 % |  |  |
| COc1cc([C@@H]2c3cc4c(cc3[C@@H](O[C@@H]3O[C@@H]5CO[C@@H](C)O[C@H]5[C@H](O)[C@H]3O)[C@H]3COC(=O)[C@H]23)OCO4)cc(OC)c1O [Etoposide, reference compound] |  |  | 3.9 ± 0.1 | 0.36 ± 0.02 | 2.4 ± 0.1 |  |  |  |  |  |  |
| COc1ccc2c(c1)c(CC(=O)O)c(C)n2C(=O)c1ccc(Cl)cc1 [Indomethacin, reference compound] |  | 92.9 |  |  |  |  |  |  | ↑92.9 ± 13.2 % |  |  |
| CS(=O)(=O)Nc1ccc([N+](=O)[O-])cc1Oc1ccccc1 [Nimesulide, reference compound] | 48.9 |  |  |  |  |  |  | ↑48.9 ± 5.5 % |  |  |  |
